We go through one compound from patent publication US8959984B2, “Proteome-wide quantification of small molecule binding to cellular target proteins” (priority 2007, dated 2015).

Assay in all cases: binding to VI16742 beads (HeLa lysate, SILAC MS)
For assay [1], the target named is T1, ACLY (IPI00021290) (Homo sapiens, UniProt P53396).
T1 construct: endogenous in cells; host or cells: HeLa S3
T1 sequence (P53396 1-1101): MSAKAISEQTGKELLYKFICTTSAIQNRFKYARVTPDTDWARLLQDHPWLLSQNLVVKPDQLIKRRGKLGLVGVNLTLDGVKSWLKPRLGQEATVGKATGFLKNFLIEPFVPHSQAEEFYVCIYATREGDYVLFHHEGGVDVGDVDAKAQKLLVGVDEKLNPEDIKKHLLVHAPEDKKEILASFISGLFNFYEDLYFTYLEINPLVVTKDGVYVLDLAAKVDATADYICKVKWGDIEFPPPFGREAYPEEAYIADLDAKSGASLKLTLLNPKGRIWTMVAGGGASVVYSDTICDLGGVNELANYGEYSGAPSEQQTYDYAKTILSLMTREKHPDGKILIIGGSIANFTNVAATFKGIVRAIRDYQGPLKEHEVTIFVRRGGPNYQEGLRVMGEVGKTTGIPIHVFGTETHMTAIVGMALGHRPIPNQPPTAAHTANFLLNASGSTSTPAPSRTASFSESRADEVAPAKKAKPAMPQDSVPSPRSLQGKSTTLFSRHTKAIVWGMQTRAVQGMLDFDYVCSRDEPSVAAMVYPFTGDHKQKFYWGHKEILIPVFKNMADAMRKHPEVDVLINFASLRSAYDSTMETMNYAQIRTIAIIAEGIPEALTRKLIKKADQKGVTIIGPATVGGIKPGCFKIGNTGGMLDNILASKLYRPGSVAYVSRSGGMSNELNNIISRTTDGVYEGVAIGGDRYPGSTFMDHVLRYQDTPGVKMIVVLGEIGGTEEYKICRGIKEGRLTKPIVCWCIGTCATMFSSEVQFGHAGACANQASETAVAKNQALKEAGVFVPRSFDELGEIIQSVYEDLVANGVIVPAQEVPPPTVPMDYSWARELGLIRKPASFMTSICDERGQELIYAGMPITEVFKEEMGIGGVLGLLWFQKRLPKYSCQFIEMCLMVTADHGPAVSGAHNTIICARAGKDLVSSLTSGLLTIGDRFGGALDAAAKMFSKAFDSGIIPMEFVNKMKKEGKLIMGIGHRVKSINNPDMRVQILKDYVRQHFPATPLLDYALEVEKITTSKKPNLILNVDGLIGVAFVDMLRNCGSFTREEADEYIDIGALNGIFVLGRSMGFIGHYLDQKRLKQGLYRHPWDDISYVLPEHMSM
Put shortly:
(§1)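 A broadly selective pyrido[2,3-d]pyrimidine kinase inhibitor was coupled to resin and used as an affinity bait for chemical proteomic profiling.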

Assay [2] deals with T2, AGL (IPI00328318) (Homo sapiens, UniProt P35573).
T2 construct: endogenous in cells; host or cells: HeLa S3
Summed up: as §1

Assay [3] concerns the target T3, CHED (CDC2L5, IPI00456970) (Homo sapiens, UniProt Q14004).
T3 construct: endogenous in cells; host or cells: HeLa S3 cell lysate
Summed up: as §1

The target in assay [4] is T4, IKKb (IKBKB, IPI00024709) (Homo sapiens, UniProt O14920).
T4 construct: endogenous in cells; host or cells: HeLa S3
T4 sequence (O14920 1-756): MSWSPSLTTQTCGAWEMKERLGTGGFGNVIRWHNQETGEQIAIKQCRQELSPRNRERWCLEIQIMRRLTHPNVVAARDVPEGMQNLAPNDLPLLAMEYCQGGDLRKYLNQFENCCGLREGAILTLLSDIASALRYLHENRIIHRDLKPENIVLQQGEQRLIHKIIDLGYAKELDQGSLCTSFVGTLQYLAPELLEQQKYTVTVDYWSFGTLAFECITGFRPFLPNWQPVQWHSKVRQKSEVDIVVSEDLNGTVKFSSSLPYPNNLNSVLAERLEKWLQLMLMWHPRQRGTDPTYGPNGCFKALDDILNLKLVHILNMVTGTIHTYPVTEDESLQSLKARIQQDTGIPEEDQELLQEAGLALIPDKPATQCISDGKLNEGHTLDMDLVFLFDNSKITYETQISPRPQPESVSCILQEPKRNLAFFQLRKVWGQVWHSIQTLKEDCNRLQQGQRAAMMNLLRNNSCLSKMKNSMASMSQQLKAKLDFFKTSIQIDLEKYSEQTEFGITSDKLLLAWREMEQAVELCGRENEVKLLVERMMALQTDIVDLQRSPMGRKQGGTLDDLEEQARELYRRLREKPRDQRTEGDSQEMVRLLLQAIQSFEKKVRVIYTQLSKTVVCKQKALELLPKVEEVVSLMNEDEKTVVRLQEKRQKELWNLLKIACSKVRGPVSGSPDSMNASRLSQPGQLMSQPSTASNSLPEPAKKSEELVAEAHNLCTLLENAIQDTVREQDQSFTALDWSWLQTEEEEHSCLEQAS
Put shortly:
as §1

In assay [5] the target is T5, TNIK/ZC2 (TNIK, IPI00514275) (Homo sapiens, UniProt Q9UKE5).
T5 construct: endogenous in cells; host or cells: HeLa S3
Summed up: as §1

Setting [6] is: control beads vs first incubation.

T5 sequence (Q9UKE5 whole entry): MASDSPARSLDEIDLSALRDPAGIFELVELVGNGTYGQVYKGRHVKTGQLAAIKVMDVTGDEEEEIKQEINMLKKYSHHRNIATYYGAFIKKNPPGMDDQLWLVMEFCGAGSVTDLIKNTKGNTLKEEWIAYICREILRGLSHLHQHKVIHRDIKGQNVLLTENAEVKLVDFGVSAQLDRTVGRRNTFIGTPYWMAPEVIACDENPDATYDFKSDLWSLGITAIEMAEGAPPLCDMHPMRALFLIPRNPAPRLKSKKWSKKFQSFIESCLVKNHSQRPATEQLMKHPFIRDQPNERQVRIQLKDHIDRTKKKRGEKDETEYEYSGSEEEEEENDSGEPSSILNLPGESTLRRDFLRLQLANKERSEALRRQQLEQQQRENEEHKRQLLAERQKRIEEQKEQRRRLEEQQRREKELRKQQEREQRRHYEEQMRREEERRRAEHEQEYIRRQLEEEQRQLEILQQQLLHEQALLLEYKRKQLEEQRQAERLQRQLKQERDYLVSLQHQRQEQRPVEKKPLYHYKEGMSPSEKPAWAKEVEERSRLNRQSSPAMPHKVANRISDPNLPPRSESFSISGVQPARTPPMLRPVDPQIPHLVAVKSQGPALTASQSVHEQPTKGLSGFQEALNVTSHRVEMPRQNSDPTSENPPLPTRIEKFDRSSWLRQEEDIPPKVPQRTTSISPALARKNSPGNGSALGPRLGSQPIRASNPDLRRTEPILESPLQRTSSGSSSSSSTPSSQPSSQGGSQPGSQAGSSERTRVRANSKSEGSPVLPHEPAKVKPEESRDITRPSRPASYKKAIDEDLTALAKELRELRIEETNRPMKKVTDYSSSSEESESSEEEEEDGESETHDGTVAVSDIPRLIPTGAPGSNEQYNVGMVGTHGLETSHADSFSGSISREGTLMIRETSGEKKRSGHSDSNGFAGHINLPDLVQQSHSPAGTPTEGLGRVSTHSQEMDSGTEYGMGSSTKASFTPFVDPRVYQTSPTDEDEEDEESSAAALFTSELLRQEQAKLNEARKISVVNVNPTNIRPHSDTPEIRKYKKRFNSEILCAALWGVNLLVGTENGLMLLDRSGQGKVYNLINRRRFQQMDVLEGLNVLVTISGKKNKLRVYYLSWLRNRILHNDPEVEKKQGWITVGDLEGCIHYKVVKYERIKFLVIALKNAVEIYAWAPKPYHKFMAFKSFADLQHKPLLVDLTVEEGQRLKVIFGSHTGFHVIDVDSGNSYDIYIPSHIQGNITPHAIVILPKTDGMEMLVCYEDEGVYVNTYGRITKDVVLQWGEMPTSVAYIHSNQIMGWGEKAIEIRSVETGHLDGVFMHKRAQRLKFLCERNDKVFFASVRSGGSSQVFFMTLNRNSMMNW
T2 sequence (P35573 whole entry): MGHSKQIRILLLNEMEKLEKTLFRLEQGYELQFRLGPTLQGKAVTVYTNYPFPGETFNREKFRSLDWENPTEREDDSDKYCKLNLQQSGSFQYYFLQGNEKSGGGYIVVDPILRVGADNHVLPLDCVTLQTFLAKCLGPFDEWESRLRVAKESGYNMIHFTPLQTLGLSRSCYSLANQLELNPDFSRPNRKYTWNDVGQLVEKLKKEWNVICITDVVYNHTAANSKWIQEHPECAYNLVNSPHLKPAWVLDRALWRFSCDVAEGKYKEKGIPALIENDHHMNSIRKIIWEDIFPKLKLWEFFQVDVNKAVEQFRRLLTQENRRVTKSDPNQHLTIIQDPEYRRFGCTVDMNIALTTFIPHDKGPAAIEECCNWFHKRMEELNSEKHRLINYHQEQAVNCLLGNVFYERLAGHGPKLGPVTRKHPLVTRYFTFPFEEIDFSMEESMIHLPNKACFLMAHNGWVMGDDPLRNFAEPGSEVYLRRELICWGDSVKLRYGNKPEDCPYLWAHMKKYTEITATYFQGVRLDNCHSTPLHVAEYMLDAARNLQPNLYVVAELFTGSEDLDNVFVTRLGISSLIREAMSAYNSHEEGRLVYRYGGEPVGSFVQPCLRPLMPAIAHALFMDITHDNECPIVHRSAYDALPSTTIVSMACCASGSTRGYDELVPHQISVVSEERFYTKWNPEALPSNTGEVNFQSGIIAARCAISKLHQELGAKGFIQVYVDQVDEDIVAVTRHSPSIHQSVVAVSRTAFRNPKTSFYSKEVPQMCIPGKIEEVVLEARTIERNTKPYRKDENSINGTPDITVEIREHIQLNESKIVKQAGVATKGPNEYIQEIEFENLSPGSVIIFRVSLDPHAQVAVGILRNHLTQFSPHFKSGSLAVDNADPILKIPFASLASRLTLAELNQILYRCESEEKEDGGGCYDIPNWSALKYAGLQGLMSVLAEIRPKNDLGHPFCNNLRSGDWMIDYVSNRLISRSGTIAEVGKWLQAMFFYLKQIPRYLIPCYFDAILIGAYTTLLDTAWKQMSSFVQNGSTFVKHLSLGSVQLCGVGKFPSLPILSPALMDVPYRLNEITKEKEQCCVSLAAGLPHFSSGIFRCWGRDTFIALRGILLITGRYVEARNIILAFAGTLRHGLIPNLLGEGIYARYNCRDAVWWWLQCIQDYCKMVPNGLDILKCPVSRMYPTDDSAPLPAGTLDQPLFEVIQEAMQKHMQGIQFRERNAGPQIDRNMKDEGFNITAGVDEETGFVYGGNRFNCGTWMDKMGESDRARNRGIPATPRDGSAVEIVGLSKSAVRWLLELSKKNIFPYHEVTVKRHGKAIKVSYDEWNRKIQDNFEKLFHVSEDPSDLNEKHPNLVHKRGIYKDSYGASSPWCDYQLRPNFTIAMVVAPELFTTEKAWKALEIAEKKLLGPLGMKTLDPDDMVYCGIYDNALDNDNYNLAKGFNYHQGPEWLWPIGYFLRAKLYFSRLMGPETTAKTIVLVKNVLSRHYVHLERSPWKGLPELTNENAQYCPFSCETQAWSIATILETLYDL
T3 sequence (Q14004 whole entry): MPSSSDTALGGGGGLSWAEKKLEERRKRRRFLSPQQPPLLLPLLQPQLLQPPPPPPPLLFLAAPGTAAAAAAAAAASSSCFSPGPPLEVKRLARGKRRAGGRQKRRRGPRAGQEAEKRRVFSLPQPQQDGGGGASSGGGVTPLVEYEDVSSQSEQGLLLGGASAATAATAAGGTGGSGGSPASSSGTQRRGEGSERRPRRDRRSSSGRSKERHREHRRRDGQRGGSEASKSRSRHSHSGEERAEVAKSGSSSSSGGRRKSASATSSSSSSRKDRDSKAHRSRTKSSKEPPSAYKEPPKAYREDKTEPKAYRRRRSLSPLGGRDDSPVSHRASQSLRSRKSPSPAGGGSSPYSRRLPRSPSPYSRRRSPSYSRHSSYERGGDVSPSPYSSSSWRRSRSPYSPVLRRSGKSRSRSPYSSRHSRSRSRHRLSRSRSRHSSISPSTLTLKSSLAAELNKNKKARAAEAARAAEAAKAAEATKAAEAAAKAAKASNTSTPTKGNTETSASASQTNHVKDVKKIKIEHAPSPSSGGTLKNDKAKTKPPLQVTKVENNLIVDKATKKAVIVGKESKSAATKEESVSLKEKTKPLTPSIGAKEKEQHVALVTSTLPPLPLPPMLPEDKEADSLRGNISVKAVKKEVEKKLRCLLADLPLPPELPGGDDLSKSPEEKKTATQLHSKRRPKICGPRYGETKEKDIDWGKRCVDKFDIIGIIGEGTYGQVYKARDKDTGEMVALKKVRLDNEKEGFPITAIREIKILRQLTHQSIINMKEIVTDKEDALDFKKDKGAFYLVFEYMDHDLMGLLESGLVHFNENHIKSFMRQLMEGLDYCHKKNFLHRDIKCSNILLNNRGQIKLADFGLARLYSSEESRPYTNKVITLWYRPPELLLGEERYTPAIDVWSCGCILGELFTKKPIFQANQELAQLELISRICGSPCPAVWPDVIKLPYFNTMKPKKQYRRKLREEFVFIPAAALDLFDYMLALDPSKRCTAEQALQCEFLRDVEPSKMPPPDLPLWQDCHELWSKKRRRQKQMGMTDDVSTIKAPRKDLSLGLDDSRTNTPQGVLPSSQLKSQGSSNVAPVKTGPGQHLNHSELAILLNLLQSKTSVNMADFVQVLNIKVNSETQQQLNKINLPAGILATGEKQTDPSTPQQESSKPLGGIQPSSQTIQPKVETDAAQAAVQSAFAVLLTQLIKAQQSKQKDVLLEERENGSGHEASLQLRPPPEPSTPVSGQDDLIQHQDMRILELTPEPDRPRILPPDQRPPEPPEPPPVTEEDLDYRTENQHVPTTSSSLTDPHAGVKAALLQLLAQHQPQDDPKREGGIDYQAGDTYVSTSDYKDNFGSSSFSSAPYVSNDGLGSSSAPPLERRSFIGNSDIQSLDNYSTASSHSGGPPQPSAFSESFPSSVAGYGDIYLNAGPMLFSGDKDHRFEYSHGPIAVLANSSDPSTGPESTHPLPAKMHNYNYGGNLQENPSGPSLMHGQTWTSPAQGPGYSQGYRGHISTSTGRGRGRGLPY

Turning to `CC(C)n1c(=O)ccc2cnc(Nc3ccc(OCCN)cc3)nc21` [V16742], the results for the “r (3 MG/1 MG LYSATE)” value in assay [1] (3 mg vs 1 mg lysate) and in assay [3] (3 mg vs 1 mg lysate) were 3.59 and 5.31, respectively. Further, the “r (5 h/2.5 h INC. TIME)” value in assay [1] (5 h vs 2.5 h incubation time) worked out at 1.98; in assay [3] (5 h vs 2.5 h incubation time) it was 1.42; in assay [5] (5 h vs 2.5 h incubation time), 1.27. Further, the “rAVERAGE (CTRL/1 INC)” value in assay [1] (setting [6]) was 0.06; in assay [2] (setting [6]), 0.08; in assay [3] (setting [6]), 0.05; in assay [4] (setting [6]), 0.06; in assay [5] (setting [6]) it was 0.19. For the same compound, the Ki in assay [1] (immobilized VI16742) is 162 µM; in assay [2] (immobilized VI16742), 218 µM; in assay [3] (immobilized VI16742) it was 84.6 µM; in assay [4] (immobilized VI16742), 201 µM; in assay [5] (immobilized VI16742), 108 µM. Further, the “rAVERAGE (2 INC/1 INC)” value in assay [1] (second vs first incubation) is given as 0.76; in assay [2] (second vs first incubation), 0.81; in assay [3] (second vs first incubation), 0.62; in assay [4] (second vs first incubation), 0.79; in assay [5] (second vs first incubation) it was 0.67.
